Measurements as given in patent US7368578B2, “Five-membered heterocyclic compounds” (Takeda Pharmaceutical Company Limited, priority 2002, dated 2008).

target: T1, human PPARγ1 (Homo sapiens, UniProt P37231); assay: Human PPARγ1 antagonist assay (luciferase reporter in PPARγ:RXRα:4ERPP/CHO-K1 cells); format: cell-based; settings: test compound 10^−5 M, 10 nM compound A as stimulant, luciferase activity, 24 hrs, read-out: Inhibitory rate (%)
T1 construct: expressed in transfected cells; host or cells: CHO-K1 cells stably transfected with pVgRXR2-hPPARγ and reporter plasmid pGL3-4ERPP-TK neo
T1 sequence (P37231 1-477 isoform P37231-2): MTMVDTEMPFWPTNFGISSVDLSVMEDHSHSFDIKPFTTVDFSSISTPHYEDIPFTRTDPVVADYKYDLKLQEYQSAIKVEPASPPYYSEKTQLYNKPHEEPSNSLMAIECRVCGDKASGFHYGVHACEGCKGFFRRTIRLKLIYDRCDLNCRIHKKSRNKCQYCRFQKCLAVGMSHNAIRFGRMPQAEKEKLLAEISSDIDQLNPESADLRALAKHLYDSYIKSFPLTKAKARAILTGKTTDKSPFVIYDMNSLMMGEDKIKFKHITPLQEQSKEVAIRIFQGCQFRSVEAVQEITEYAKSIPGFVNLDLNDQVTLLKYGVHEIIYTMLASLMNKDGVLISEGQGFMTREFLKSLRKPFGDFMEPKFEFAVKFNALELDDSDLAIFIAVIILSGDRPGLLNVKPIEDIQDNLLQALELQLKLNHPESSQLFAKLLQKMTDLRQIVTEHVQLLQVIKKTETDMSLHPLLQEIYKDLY
T1 sequence (P19793 1-462 partner): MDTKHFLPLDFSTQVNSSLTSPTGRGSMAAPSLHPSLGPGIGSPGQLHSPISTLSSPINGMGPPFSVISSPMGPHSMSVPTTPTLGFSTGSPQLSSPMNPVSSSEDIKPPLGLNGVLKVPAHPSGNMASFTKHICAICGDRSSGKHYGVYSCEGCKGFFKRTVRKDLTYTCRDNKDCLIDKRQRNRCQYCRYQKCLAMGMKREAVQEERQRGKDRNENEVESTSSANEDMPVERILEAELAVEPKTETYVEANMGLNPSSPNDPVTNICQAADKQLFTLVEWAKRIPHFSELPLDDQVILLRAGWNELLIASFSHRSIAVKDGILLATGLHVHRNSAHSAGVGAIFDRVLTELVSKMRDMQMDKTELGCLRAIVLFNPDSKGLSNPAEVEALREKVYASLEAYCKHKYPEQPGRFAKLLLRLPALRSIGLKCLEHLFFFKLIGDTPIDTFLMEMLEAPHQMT
Protocol: PPARγ:RXRα:4ERPP/CHO-K1 cells (obtained in Reference Example 5a) cultured in Ham's F-12 medium (GIBCO, Inc.) supplemented with 10% fetal bovine serum (TRACE SCIENTIFIC, Ltd.) were seeded in a well of a 96 well white plate at 2×10^4 cells/well and cultured under 37° C. 5% CO2 conditions for 24 hrs. After removal of the medium, Ham's F-12 medium (GIBCO) containing 60 μl of 0.1% BSA (not containing fatty acid) (Wako Pure Chemical Industries, Ltd.), 20 μl of 10^−5M or 10^−6 M test compound and 20 μl of compound A having a final concentration of 10 nM as a stimulant were added, and the cells were cultured under 37° C. 5% CO2 conditions for 24 hrs. After removal of the medium, 40 μl of Pickagene LT7.5 (Wako Pure Chemical Industries, Ltd.) 2-fold diluted with HBSS (HANKS' BALANCED SALT SOLUTION) (BIO WHITTAKER Inc.) was added. After stirring, luciferase activity was measured using 1420 ARVO Multilabel Counter (Wallac, Inc.). In addition, a test similar to the above was conducted for the non-use of the aforementioned test compound alone and for the non-use of the aforementioned test compound and compound A to determine the luciferase activity.
The human PPARγ1 antagonistic activity of the test compound was evaluated using percentages (% inhibition) wherein the luciferase activity when 10 nM compound A alone was added was 0%, and the luciferase activity when the test compound and compound A were not added was 100%. The concentration of the test compound was 10^−5 M for the compounds of Example 42 and 315 and 10^−6 M for other test compounds.
After a CHO-K1 cell cultured in a cell culture flask (150 cm^2) (produced by Corning Costar Corporation, USA) containing Ham's F-12 medium (produced by Life Technologies, Inc., USA) supplemented with 10% fetal bovine serum (produced by Life Technologies, Inc., USA) was detached by treating with 0.5 g/L trypsin-0.2 g/L EDTA (ethylenediaminetetraacetic acid) (produced by Life Technologies, Inc., USA), the cell was washed with PBS (phosphate-buffered saline) (produced by Life Technologies, Inc., USA), centrifuged (1000 rpm, 5 minutes), and then suspended in PBS. Subsequently, the DNA was introduced into the cells under the conditions shown below using GENE PULSER (produced by Bio-Rad Laboratories, USA).
Namely, to a cuvette having a 0.4 cm gap, added were 8×10^6 cells and 10 μg of plasmid pVgRXR2-hPPARγ obtained in Reference Example 4a and 10 μg of reporter plasmid pGL3-4ERPP-TK neo obtained in Reference Example 2a, which was subjected to electroporation at the voltage of 0.25 kV under the capacitance of 960 μF. Subsequently, the cell was transferred into a Ham's F-12 medium containing 10% fetal bovine serum and cultured for 24 hours and then the cells were detached again and centrifuged, and then suspended in HAM F12 medium containing 10% fetal bovine serum supplemented with 500 μg/ml of GENETICIN (produced by Life Technologies, Inc., USA) and 250 μg/ml of ZEOCIN (produced by Invitrogen, USA). The obtained suspension was diluted to the density of 10^4 cells/ml and inoculated to a 96-well plate (produced by Corning Costar Corporation, USA), which was cultured in a CO2 gas incubator at 37° C., whereby obtaining a GENETICIN- and ZEOCIN-resistant transformant. Subsequently, after the transformant cell line thus obtained was cultured in a 24-well plate (produced by Corning Costar Corporation, USA), selected was a cell line in which the luciferase was expressed and induced, i.e., PPARγ:RXRα:4ERPP/CHO-K1 cell by the addition of 10 μM pioglitazone hydrochloride.

In the case of `Cc1oc(-c2ccco2)nc1COc1ccc(COc2nn(Cc3ccccc3)cc2C=O)cn1` [Example 42, 1-benzyl-3-[(6-{[2-(2-furyl)-5-methyl-1,3-oxazol-4-yl]methoxy}-3-pyridinyl)methoxy]-1H-pyrazole-4-carbaldehyde], the inhibition at 10 µM is reported as 50%.

same assay, conditions: test compound 10^−6 M, 10 nM compound A as stimulant, luciferase activity, 24 hrs, read-out: Inhibitory rate (%)

Going from `CCc1nc(/C=C/c2cn(-c3ccccc3)nc2OCc2ccc(OCc3nc(-c4ccc(CC(=O)O)cc4)oc3C)c(OC)c2)cs1` [Example 337, {4-[4-({4-[({4-[(E)-2-(2-ethyl-1,3-thiazol-4-yl)ethenyl]-1-phenyl-1H-pyrazol-3-yl}oxy)methyl]-2-methoxyphenoxy}methyl)-5-methyl-1,3-oxazol-2-yl]phenyl}acetic acid] to `COc1cc(COc2nn(-c3ccccc3)cc2/C=C/c2csc(C)n2)ccc1OCc1nc(-c2ccc(CC(=O)O)cc2)oc1C` [Example 357, {4-[4-({2-methoxy-4-[({4-[(E)-2-(2-methyl-1,3-thiazol-4-yl)ethenyl]-1-phenyl-1H-pyrazol-3-yl}oxy)methyl]phenoxy}methyl)-5-methyl-1,3-oxazol-2-yl]phenyl}acetic acid], the inhibition at 1 µM falls from 110% to 103%.

First: COc1cc(COc2nn(-c3ccccc3)cc2C=O)ccc1OCc1nc(-c2ccco2)oc1C [Example 76, 3-[(4-{[2-(2-furyl)-5-methyl-1,3-oxazol-4-yl]methoxy}-3-methoxybenzyl)oxy]-1-phenyl-1H-pyrazole-4-carbaldehyde]
Second: COc1cc(COc2nn(-c3ccccc3)cc2C#N)ccc1OCc1nc(-c2ccco2)oc1C [Example 77, 3-[(4-{[2-(2-furyl)-5-methyl-1,3-oxazol-4-yl]methoxy)-3-methoxybenzyl)oxy]-1-phenyl-1H-pyrazole-4-carbonitrile]
The inhibition at 1 µM of the first is higher: 63% for the first, 51% for the second.

`CCOP(=O)(/C=C/c1cn(-c2ccccc2)nc1OCc1ccc(OCc2nc(-c3ccc(OC)c(C(=O)O)c3)oc2C)c(OC)c1)OCC` [Example 252, 5-{4-({4-[({4-[(E)-2-(diethoxyphosphoryl)ethenyl]-1-phenyl-1H-pyrazol-3-yl}oxy)methyl]-2-methoxyphenoxy}methyl)-5-methyl-1,3-oxazol-2-yl}-2-methoxybenzoic acid] and `CCOP(=O)(/C=C/c1cn(-c2ccccc2)nc1OCc1ccc(OCc2nc(-c3cccc(C(=O)O)c3)oc2C)c(OC)c1)OCC` [Example 203, 3-[4-({4-[({4-[(E)-2-(diethoxyphosphoryl)ethenyl]-1-phenyl-1H-pyrazol-3-yl}oxy)methyl]-2-methoxyphenoxy}methyl)-5-methyl-1,3-oxazol-2-yl]benzoic acid] are the same in inhibition at 1 µM: 111% for the first, 111% for the second.

First: COc1cc(COc2nn(-c3ccccc3)cc2/C=C/C#N)ccc1OCc1nc(-c2ccccc2)oc1C [Example 282, (E)-3-(3-{[3-methoxy-4-(5-methyl-2-phenyl-1,3-oxazol-4-ylmethoxy)benzyl]oxy}-1-phenyl-1H-pyrazol-4-yl)-2-propenonitrile]
Second: CCOC(=O)/C=C/c1cn(-c2ccccc2)nc1OCc1ccc(OCc2nc(-c3ccccc3)oc2C)c(OC)c1 [Example 284, ethyl (E)-3-(3-{[3-methoxy-4-(5-methyl-2-phenyl-1,3-oxazol-4-ylmethoxy)benzyl]oxy}-1-phenyl-1H-pyrazol-4-yl)-2-propenoate]
The inhibition at 1 µM of the first is lower: 69% for the first, 107% for the second.

Going from `CCc1nc(/C=C/c2cn(-c3ccccc3)nc2OCc2ccc(OCc3nc(-c4ccc(CC(=O)O)cc4)oc3C)c(OC)c2)co1` [Example 369, {4-[4-({4-[({4-[(E)-2-(2-ethyl-1,3-oxazol-4-yl)ethenyl]-1-phenyl-1H-pyrazol-3-yl}oxy)methyl]-2-methoxyphenoxy}methyl)-5-methyl-1,3-oxazol-2-yl]phenyl}acetic acid] to `CCn1cnc(/C=C/c2cn(-c3ccccc3)nc2OCc2ccc(OCc3nc(-c4ccc(CC(=O)O)cc4)oc3C)c(OC)c2)c1` [Example 344, (4-{4-[(4-[({4-[(E)-2-(1-ethyl-1H-imidazol-4-yl)ethenyl]-1-phenyl-1H-pyrazol-3-yl}oxy)methyl]-2-methoxyphenoxy)methyl]-5-methyl-1,3-oxazol-2-yl}phenyl)acetic acid], the inhibition at 1 µM falls from 108% to 103%.

Going from `CCC(=O)/C=C/c1cn(-c2ccccc2)nc1OCc1ccc(OCc2nc(-c3ccco3)oc2C)c(OC)c1` [Example 156, (1E)-1-{3-[(4-{[2-(2-furyl)-5-methyl-1,3-oxazol-4-yl]methoxy}-3-methoxybenzyl)oxy]-1-phenyl-1H-pyrazol-4-yl}-1-penten-3-one] to `CCOC(=O)c1cn(-c2ccccc2)nc1OCc1ccc(OCc2nc(-c3ccco3)oc2C)c(OC)c1` [Example 72, ethyl 3-[(4-{[2-(2-furyl)-5-methyl-1,3-oxazol-4-yl]methoxy}-3-methoxybenzyl)oxy]-1-phenyl-1H-pyrazole-4-carboxylate], the inhibition at 1 µM falls from 66% to 62%.

Compared with `CCOP(=O)(/C=C/c1cn(-c2ccccc2)nc1OCc1ccc(OCc2nc(-c3ccco3)oc2C)c(OC)c1)OCC` [Example 116 (E form), diethyl (E)-2-{3-[(4-{[2-(2-furyl)-5-methyl-1,3-oxazol-4-yl]methoxy}-3-methoxybenzyl)oxy]-1-phenyl-1H-pyrazol-4-yl}ethenylphosphonate], `COc1cc(COc2nn(-c3ccccc3)cc2/C=C/P(=O)(OC(C)C)OC(C)C)ccc1OCc1nc(-c2ccco2)oc1C` [Example 145, diisopropyl (E)-2-{3-[(4-{[2-(2-furyl)-5-methyl-1,3-oxazol-4-yl]methoxy}-3-methoxybenzyl)oxy]-1-phenyl-1H-pyrazol-4-yl}ethenylphosphonate] is lower in inhibition at 1 µM: 97% for the first, 96% for the second.

Work on `COc1cc(COc2nn(-c3ccccc3)cc2/C=C/c2csc(C)n2)ccc1OCc1nc(-c2ccco2)oc1C` [Example 150 (E form), 2-(2-furyl)-4-({2-methoxy-4-[({4-[(E)-2-(2-methyl-1,3-thiazol-4-yl)ethenyl]-1-phenyl-1H-pyrazol-3-yl}oxy)methyl]phenoxy}methyl)-5-methyl-1,3-oxazole] yielded an inhibition at 1 µM of 82%.
